Measurements published in patent US10526287B2, “LSD1 inhibitors and uses thereof” (Constellation Pharmaceuticals, Inc., priority 2015, dated 2020).
Counter-ions that a name gives are not always drawn. Like-named read-outs stand apart in the source and are kept apart here.

Molecular target: LSD1 (Homo sapiens, UniProt O60341)
Test: Biochemical assay for LSD1 activity (LSD1 demethylase TR-FRET)
Conditions: biotinylated H3K4me1 peptide, 50 minutes at room temperature, TR-FRET, read-out: LSD1_Pep_TR-FRET_1.0 (IC50 T50)

Row | SMILES | IC50 (Table 6) [nM] | IC50 (Table 7) [nM]
1 | CC/C(=C\c1ccccc1)[C@@H]1C[C@H]1N[C@H]1CC[C@@H](N(C)CCC(=O)O)CC1 (racemic) [Compound 213, 3-(methyl((cis)-4-(((trans)-2-((E)-1-phenylbut-1-en-2-yl)cyclopropyl)amino)cyclohexyl)amino)propanoic Acid Dihydrochloride] | 100 to 1000 | –
2 | CC/C(=C\c1ccccc1)[C@@H]1C[C@H]1N[C@H]1CC[C@H](NCC2(C(=O)O)CC2)CC1 (racemic) [Compound 223, 1-((((trans)-4-(((trans)-2-((E)-1-phenylbut-1-en-2-yl)cyclopropyl)amino)cyclohexyl)amino)methyl)cyclopropane-1-carboxylic Acid] | < 100 | –
3 | CC/C(=C\c1ccccc1)[C@@H]1C[C@H]1NC1CCC(NCc2ccc(C(=O)O)nc2)CC1 (mixture of isomers) [Compound 224, 5-((((trans)-4-(((trans)-2-((E)-1-phenylbut-1-en-2-yl)cyclopropyl)amino)cyclohexyl)amino)methyl)picolinic acid] | < 100 | –
4 | CC/C(=C\c1ccccc1)[C@@H]1C[C@H]1NC1CC2(CCN(Cc3ccc(C(=O)O)cc3)CC2)C1 (racemic) [Compound 227, 4-((2-(((trans)-2-((E)-1-phenylbut-1-en-2-yl)cyclopropyl)amino)-7-azaspiro[3.5]nonan-7-yl)methyl)benzoic acid dihydrochloride] | – | < 100
5 | CC/C(=C\c1ccccc1)[C@@H]1C[C@H]1NC1CC2(CCN(CC(C)(C)C(=O)O)CC2)C1 (racemic) [Compound 228, 2,2-dimethyl-3-(2-(((trans)-2-(E)-1-phenylbut-1-en-2-yl)cyclopropyl)amino)-7-azaspiro[3.5]nonan-7-yl)propanoic Acid Bis Trifluoroacetate] | – | < 100
6 | CC/C(=C\c1ccccc1)[C@@H]1C[C@H]1NC1CC2(C1)CN(CC(C)(C)C(=O)O)C2 (racemic) [Compound 229] | – | < 100
7 | CC/C(=C\c1ccccc1)[C@@H]1C[C@H]1NC1CC2(C1)CN(Cc1ccc(C(=O)O)nc1)C2 (racemic) [Compound 231] | – | < 100
8 | CC/C(=C\c1ccccc1)[C@@H]1C[C@H]1NCC1(C)CN(Cc2ccc(C(=O)O)cc2)C1 (racemic) [Compound 235] | – | < 100
9 | CC/C(=C\c1ccccc1)[C@@H]1C[C@H]1NC[C@H]1C[C@H](NCc2ccc(C(=O)O)cc2)C1 (racemic) [Compound 236] | – | < 100
10 | CC/C(=C\c1ccccc1)[C@@H]1C[C@H]1NCCC1CN(Cc2ccc(C(=O)O)cc2)C1 (racemic) [Compound 241] | – | < 100
11 | CC/C(=C\c1ccccc1)[C@@H]1C[C@H]1NCC1(C)CNC1 (racemic) [Compound 243] | – | < 100
12 | CC/C(=C\c1ccccc1)[C@@H]1C[C@H]1NC[C@H]1CC[C@H](NCc2ccc(C(=O)O)cc2)CC1 (racemic) [Compound 245, 4-((((trans)-4-((((trans)-2-((E)-1-phenylbut-1-en-2-yl)cyclopropyl)amino)methyl)cyclohexyl)amino)methyl)benzoic Acid Bis Trifluoroacetate] | – | < 100
13 | CC/C(=C\c1ccccc1)[C@@H]1C[C@H]1NCc1cnc(N)nc1 (racemic) [Compound 246, 5-((((trans)-2-((E)-1-phenylbut-1-en-2-yl)cyclopropyl)amino)methyl)pyrimidin-2-amine Hydrochloride] | – | < 100
14 | CC(C)/C(=C\c1ccccc1)[C@@H]1C[C@H]1NC1CCNCC1 (racemic) [Compound 277, N-((trans)-2-((E)-3-methyl-1-phenylbut-1-en-2-yl)cyclopropyl)piperidin-4-amine Dihydrochloride] | < 100 | –
15 | CC(=Cc1ccc(C#N)cc1)C1CC1N[C@H]1CC[C@@H](N)CC1 (relative stereo) [Compound 131, 4-(2-(2-(((cis)-4-aminocyclohexyl)amino)cyclopropyl)prop-1-en-1-yl)benzonitrile Dihydrochloride] | > 10000 | –
16 | C/C(=C\c1ccccc1)[C@@H]1C[C@H]1N[C@H]1CC[C@H](N(C)C)CC1 (single isomer, unassigned) [Compound 138, (trans)-N^1,N^1-dimethyl-N^4-((trans)-2-((E)-1-phenylprop-1-en-2-yl)cyclopropyl)cyclohexane-1,4-diamine] | < 100 | –
17 | COCCNC1CCC(N[C@@H]2C[C@H]2/C(C)=C/c2ccccc2)CC1 (single isomer, unassigned) [Compound 143, (trans)-N1-(2-methoxyethyl)-N4-((trans)-2-((E)-1-phenylprop-1-en-2-yl)cyclopropyl)cyclohexane-1,4-diamine bis(trifluoroacetic acid salt)] | < 100 | –
18 | COCCN[C@H]1CC[C@@H](N[C@@H]2C[C@H]2/C(C)=C/c2ccccc2)CC1 (single isomer, unassigned) [Compound 144, (cis)-N1-(2-methoxyethyl)-N4-((trans)-2-((E)-1-phenylprop-1-en-2-yl)cyclopropyl)cyclohexane-1,4-diamine bis(trifluoroacetic acid) salt] | < 100 | –
19 | C/C(=C\c1ccccc1)[C@@H]1C[C@H]1N[C@H]1CC[C@H](NCCC(=O)N2CCCC2)CC1 (single isomer, unassigned) [Compound 146, 3-(((trans)-4-(((trans)-2-((E)-1-phenylprop-1-en-2-yl)cyclopropyl)amino)cyclohexyl)amino)-1-(pyrrolidin-1-yl)propan-1-one bis(trifluoroacetic acid) salt] | < 100 | –
20 | C/C(=C\c1ccccc1)[C@@H]1C[C@H]1N[C@H]1CC[C@H](NCC(C)(C)C(=O)O)CC1 (single isomer, unassigned) [Compound 148, 2,2-dimethyl-3-(((trans)-4-(((trans)-2-((E)-1-phenylprop-1-en-2-yl)cyclopropyl)amino)cyclohexyl)amino)propanoic acid bis(trifluoroacetic acid) salt] | < 100 | –

Second part, the compound after the results:

Row | IC50 (Table 6) [nM] | IC50 (Table 7) [nM] | SMILES
21 | < 100 | – | CC/C(=C\c1ccccc1)[C@@H]1C[C@H]1N[C@H]1CC[C@H](N(C)CCC(=O)O)CC1 (racemic) [Compound 212, 3-(methyl((trans)-4-(((trans)-2-((E)-1-phenylbut-1-en-2-yl)cyclopropyl)amino)cyclohexyl)amino)propanoic Acid Dihydrochloride]
22 | < 100 | – | CC/C(=C\c1ccccc1)[C@@H]1C[C@H]1N[C@H]1CC[C@H](NCc2ccc(C(=O)O)cc2)CC1 (racemic) [Compound 218, 4-((((trans)-4-(((trans)-2-((E)-1-phenylbut-1-en-2-yl)cyclopropyl)amino)cyclohexyl)amino)methyl)benzoic Acid Dihydrochloride]
23 | – | < 100 | CC/C(=C\c1ccccc1)[C@@H]1C[C@H]1NC1CC2(CCN(CCC(=O)O)CC2)C1 (racemic) [Compound 225, 3-(2-(((trans)-2-((E)-1-phenylbut-1-en-2-yl)cyclopropyl)amino)-7-azaspiro[3.5]nonan-7-yl)propanoic Acid Bis Trifluoroacetate]
24 | – | < 100 | CC/C(=C\c1ccccc1)[C@@H]1C[C@H]1NC1CC2(C1)CN(Cc1ccc(C(=O)O)cc1)C2 (racemic) [Compound 226, 4-((6-(((trans)-2-((E)-1-phenylbut-en-2-yl)cyclopropyl)amino)-2-azaspiro[3.3]heptan-2-yl)methyl)benzoic acid bis trifluoroacetate]
25 | – | < 100 | CC/C(=C\c1ccccc1)[C@@H]1C[C@H]1NC1CC2(C1)CN(CCC(=O)O)C2 (racemic) [Compound 230]
26 | – | 100 to 1000 | CC/C(=C\c1ccccc1)[C@@H]1C[C@H]1NC[C@H]1CC[C@H](NCC(C)(C)C(=O)O)CC1 (racemic) [Compound 232]
27 | – | < 100 | CC/C(=C\c1ccccc1)[C@@H]1C[C@H]1NC[C@H]1C[C@H](NCC(C)(C)C(=O)O)C1 (racemic) [Compound 233]
28 | – | < 100 | CC/C(=C\c1ccccc1)[C@@H]1C[C@H]1NC[C@H]1C[C@H](N)C1 (racemic) [Compound 239]
29 | – | < 100 | CC/C(=C\c1ccccc1)[C@@H]1C[C@H]1NCCC(C)(C)N (racemic) [Compound 240]
30 | – | < 100 | CC/C(=C\c1ccccc1)[C@@H]1C[C@H]1NCc1cnn(C2CNC2)c1 (racemic) [Compound 242]
31 | – | < 100 | CC/C(=C\c1ccccc1)[C@@H]1C[C@H]1NCc1ccccc1CN (racemic) [Compound 247, (trans)-N-(2-(aminomethyl)benzyl)-2-((E)-1-phenylbut-1-en-2-yl)cyclopropan-1-amine]
32 | > 10000 | – | CC(=Cc1ccc(C#N)cc1)C1CC1N[C@H]1CC[C@H](N)CC1 (relative stereo) [Compound 132, 4-(2-(2-(((trans)-4-aminocyclohexyl)amino)cyclopropyl)prop-1-en-1-yl)benzonitrile Dihydrochloride]
33 | < 100 | – | CC/C(=C\c1ccccc1)[C@@H]1C[C@H]1N[C@H]1CC[C@H](NCCCC(=O)O)CC1 (relative stereo) [Compound 180, 4-(((trans)-4-(((trans)-2-((E)-1-phenylbut-1-en-2-yl)cyclopropyl)amino)cyclohexyl)amino)butanoic Acid bis(trifluoroacetic Acid) Salt]
34 | < 100 | – | CNC(=O)CCCN[C@H]1CC[C@@H](N[C@@H]2C[C@H]2/C(C)=C/c2ccccc2)CC1 (single isomer, unassigned) [Compound 145, N-methyl-4-(((cis)-4-(((trans)-2-((E)-1-phenylprop-1-en-2-yl)cyclopropyl)amino)cyclohexyl)amino)butanamide bis(trifluoroacetic acid) salt]
35 | < 100 | – | C/C(=C\c1ccccc1)[C@@H]1C[C@H]1N[C@H]1CC[C@@H](NCC(C)(C)C(=O)O)CC1 (single isomer, unassigned) [Compound 149, 2,2-dimethyl-3-(((cis)-4-(((trans)-2-((E)-1-phenylprop-1-en-2-yl)cyclopropyl)amino)cyclohexyl)amino)propanoic acid bis(trifluoroacetic acid) salt]
